Active and inactive are the calls of the source. The rule behind the calls is not given here.
The molecules below were run on StAR promoter luciferase reporter cells, luminescence inhibition (assay: nonselective StAR promoter luciferase inhibitors – cell-based, luminescence, dose response, counter-screen for LRH-1 inverse agonist project, late-stage follow-up (AID 651975)).

**Q.** How did the IC50 turn out when `COc1ccc(CC(NC(C)=O)C(=O)NC2CCN(c3nnnn3-c3ccccc3)CC2)cc1` (centres undefined) was run?
**A.** The IC50 was > 35.9 µM (inactive).

**Q.** For `COCC(=O)NC1CCN(CC(=O)Nc2ccc(OC)cc2[N+](=O)[O-])CC1`, which IC50 is on record?
**A.** Its IC50 is > 35.9 µM (inactive).

**Q.** How did the IC50 turn out when `CN1CCN(c2ccc(S(=O)(=O)N3CCCCC3)cc2NC(=O)COc2ccc([N+](=O)[O-])cc2)CC1` was run?
**A.** Its IC50 is > 35.9 µM (inactive).

**Q.** With `COc1ccc(C2(C)NC(=O)N(CC(=O)NCCC3=CCCCC3)C2=O)cc1OC` (centres undefined) as the molecule, how does the IC50 read?
**A.** Its IC50 is > 35.9 µM (inactive).

Source: PubChem BioAssay AID651975 (The Scripps Research Institute Molecular Screening Center, 2013)
